Several values for one entry are separate records, joined by “and”; a condition that tells them apart may be missing. Equal values may be shown once. Inconclusive results and toxic doses are left out.

This assay deals with P388 leukemia ip, CD2F1 mice, survival T/C. Kind of assay: NCI In Vivo Anticancer Drug Screen. Data for tumor model P388 Leukemia (intraperitoneal) in CD2F1 (CDF1) mice. The following applies: endpoint: median survival time, higher = longer survival. In a few lines: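 Mice carrying the transplanted tumor received test compound or vehicle. Survival was recorded in each group, and the value is the treated-group measurement divided by that of the vehicle-treated control group.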

[1] abbreviates: dose: 100.0 mg/kg/injection, schedule: Q01DX009 (ip), vehicle: saline with Tween-80.
The mark [2] stands for this setting: dose: 200.0 mg/kg/injection, schedule: Q01DX009 (ip), vehicle: saline with Tween-80.
Where [3] appears, read: dose: 400.0 mg/kg/injection, schedule: Q01DX009 (ip), vehicle: saline with Tween-80.
[4] abbreviates: dose: 25.0 mg/kg/injection, schedule: Q01DX009 (ip), vehicle: Klucel (hydroxypropylcellulose) (HPC).
Where [5] appears, read: dose: 60.0 mg/kg/injection, schedule: Q01DX005 (ip), vehicle: saline with Tween-80.
[6] abbreviates: dose: 120.0 mg/kg/injection, schedule: Q01DX005 (ip), vehicle: saline with Tween-80.
Setting [7] is: dose: 240.0 mg/kg/injection, schedule: Q01DX005 (ip), vehicle: saline with Tween-80.
The mark [8] stands for this setting: dose: 50.0 mg/kg/injection, schedule: Q01DX009 (ip), vehicle: Klucel (hydroxypropylcellulose) (HPC).
[9] abbreviates: dose: 100.0 mg/kg/injection, schedule: Q01DX009 (ip), vehicle: Klucel (hydroxypropylcellulose) (HPC).
Where [10] appears, read: dose: 200.0 mg/kg/injection, schedule: Q01DX009 (ip), vehicle: Klucel (hydroxypropylcellulose) (HPC).
The mark [11] stands for this setting: dose: 50.0 mg/kg/injection, schedule: Q01DX005 (ip), vehicle: Klucel (hydroxypropylcellulose) (HPC).
Where [12] appears, read: dose: 100.0 mg/kg/injection, schedule: Q01DX005 (ip), vehicle: Klucel (hydroxypropylcellulose) (HPC).
Where [13] appears, read: dose: 200.0 mg/kg/injection, schedule: Q01DX005 (ip), vehicle: Klucel (hydroxypropylcellulose) (HPC).
[14] abbreviates: dose: 50.0 mg/kg/injection, schedule: Q01DX009 (ip), vehicle: saline with Tween-80.
Setting [15] is: dose: 50.0 mg/kg/injection, schedule: Q01DX009 (ip), vehicle: saline.
The mark [16] stands for this setting: dose: 100.0 mg/kg/injection, schedule: Q01DX009 (ip), vehicle: saline.
[17] abbreviates: dose: 200.0 mg/kg/injection, schedule: Q01DX009 (ip), vehicle: saline.

With `O=C(Nc1ccccc1)c1ccccc1C(O)(c1ccccc1)c1ccc(Cl)cc1` (configuration not stated), the T/C under setting [1] was 95 % of control, the T/C under setting [2] was 90 % of control and the T/C under setting [3] was 90 % of control.

On to `CCOC(=O)NC(C#N)=C(Cl)Cl`, for which the T/C by setting is: (dose: 6.25 mg/kg/injection, schedule: Q01DX009 (ip), vehicle: Klucel (hydroxypropylcellulose) (HPC)) 100 % of control; (dose: 12.5 mg/kg/injection, schedule: Q01DX009 (ip), vehicle: Klucel (hydroxypropylcellulose) (HPC)) 100 % of control; under setting [4], 101 % of control.

Take `[N-]=[N+]=Nc1ccnc2c(C(F)(F)F)cccc12`: the T/C reads like this: under setting [5], 108 % of control; under setting [6], 100 % of control; under setting [7], 92 % of control.

Turning to `c1ccc(-c2nc3ccccc3c3ccccc23)cc1`, the T/C reads like this: (dose: 50.0 mg/kg/injection, schedule: Q01DX005 (ip), vehicle: saline with Tween-80) 101 % of control; (dose: 100.0 mg/kg/injection, schedule: Q01DX005 (ip), vehicle: saline with Tween-80) 113 % of control; (dose: 200.0 mg/kg/injection, schedule: Q01DX005 (ip), vehicle: saline with Tween-80) 102 % of control.

Take `CN1C2(c3ccccc3)OC(=O)C1(c1ccccc1)C1C(=O)C3C4c5ccccc5C(c5ccccc54)C3C(=O)C12` (configuration not stated): the T/C under setting [8] was 94 % of control, the T/C under setting [9] was 100 % of control and the T/C under setting [10] was 94 % of control.

For `COc1cccc2c1C(=O)c1c(O)c3c(c(O)c1C2=O)C[C@@](O)(C(=O)CO)C[C@@H]3OC1CC(NC(=O)CN)C(O)C(C)O1` (some centres not stated), the T/C is 93 % of control (dose: 25.0 mg/kg/injection, schedule: Q01DX009 (ip), vehicle: other); 94 % of control (dose: 50.0 mg/kg/injection, schedule: Q01DX009 (ip), vehicle: other); 96 % of control (dose: 100.0 mg/kg/injection, schedule: Q01DX009 (ip), vehicle: other).

For `Cn1cnc([N+](=O)[O-])c1Sc1n[nH]c(N)n1`, the T/C was 111 % of control under setting [11], 117 % of control under setting [12] and 108 % of control under setting [13].

For `CCCCN(CCCC)c1ccc(C(=N)c2ccc(N(C)C)cc2)cc1`, the T/C (dose: 6.25 mg/kg/injection, schedule: Q01DX005 (ip), vehicle: Klucel (hydroxypropylcellulose) (HPC)) was 106 % of control and the T/C (dose: 12.5 mg/kg/injection, schedule: Q01DX005 (ip), vehicle: Klucel (hydroxypropylcellulose) (HPC)) was 106 % of control.

With `C[C@]12CCC[C@@H]3C[C@@]31C[C@@H]([C@@]1(C)CO1)CC2`, the T/C by setting is: under setting [4], 98 % of control and 91 % of control; under setting [8], 102 % of control and 106 % of control; under setting [9], 102 % of control and 104 % of control and 88 % of control; under setting [10], 100 % of control and 120 % of control.

Consider `CCc1c(O)c(C#N)c2[nH]c3cc(C)c(C)cc3n2c1=O`, for which the T/C is 100 % of control under setting [5], 102 % of control under setting [6] and 99 % of control under setting [7].

With `O=c1c(SSc2coc3ccccc3c2=O)coc2ccccc12`, the T/C under setting [5] is 116 % of control, the T/C under setting [6] was 102 % of control and the T/C under setting [7] is 106 % of control.

With `Cn1c(=O)c2c(O)c(-c3ccccc3)c(=O)n3c4ccccc4n(c1=O)c23`, the T/C is, setting by setting: under setting [5], 99 % of control; under setting [6], 96 % of control; under setting [7], 97 % of control.

As for `O=C(O)c1ccc[c]([Sb]2(=[O])[O]C(CO)C(C(O)C(O)C(=O)O)[O]2)c1` (configuration not stated), the T/C was 100 % of control (dose: 50.0 mg/kg/injection, schedule: Q01DX005 (ip), vehicle: saline); 100 % of control (dose: 100.0 mg/kg/injection, schedule: Q01DX005 (ip), vehicle: saline); 104 % of control (dose: 200.0 mg/kg/injection, schedule: Q01DX005 (ip), vehicle: saline).

For `S=c1s[nH]c2c1CCC2`, the T/C runs as follows: under setting [14], 98 % of control; under setting [15], 105 % of control; under setting [1], 101 % of control; under setting [16], 110 % of control; under setting [2], 105 % of control; under setting [17], 120 % of control. Moreover, the T/C under setting [3] is 95 % of control.

Take `O=C1NC(=O)C23CCCCc4cccc(c42)C(=O)C13` (configuration not stated): the T/C is, setting by setting: (dose: 25.0 mg/kg/injection, schedule: Q01DX005 (ip), vehicle: water) 100 % of control; (dose: 50.0 mg/kg/injection, schedule: Q01DX005 (ip), vehicle: water) 99 % of control; (dose: 100.0 mg/kg/injection, schedule: Q01DX005 (ip), vehicle: water) 103 % of control; (dose: 200.0 mg/kg/injection, schedule: Q01DX005 (ip), vehicle: water) 100 % of control.

Regarding `NC(CSCCCCl)C(=O)O` (configuration not stated), the T/C under setting [15] is 95 % of control, the T/C under setting [16] is 95 % of control and the T/C under setting [17] is 97 % of control.

With `COc1cc(/C=N/NC(=O)COc2ccccc2)ccc1O`, the T/C under setting [5] is 100 % of control, the T/C under setting [6] is 103 % of control and the T/C under setting [7] is 98 % of control.

Consider `O=c1c2oc3ccccc3c2cnn1CO`, for which the T/C reads like this: (dose: 12.5 mg/kg/injection, schedule: Q01DX009 (ip), vehicle: saline with Tween-80) 103 % of control and 97 % of control; (dose: 25.0 mg/kg/injection, schedule: Q01DX009 (ip), vehicle: saline with Tween-80) 100 % of control and 105 % of control; under setting [14], 102 % of control and 108 % of control; under setting [1], 105 % of control and 117 % of control.

For `CCCC(=O)N[C@H]1CCc2cc(OC)c(OC)c(OC)c2-c2ccc(SC)c(=O)cc21`, the T/C runs as follows: (dose: 0.38 mg/kg/injection, schedule: Q01DX009 (ip), vehicle: distilled water + Tween-80) 156 % of control; (dose: 0.75 mg/kg/injection, schedule: Q01DX009 (ip), vehicle: distilled water + Tween-80) 160 % of control; (dose: 0.75 mg/kg/injection, schedule: Q01DX009 (ip), vehicle: water) 182 % of control; (dose: 1.5 mg/kg/injection, schedule: Q01DX009 (ip), vehicle: water) 231 % of control.

For the compound `Cc1ccc(S(=O)(=O)C(C#N)(CCC(=O)/C=C/c2ccccc2)CCC(=O)/C=C/c2ccccc2)cc1`, the T/C was 99 % of control under setting [11], 92 % of control under setting [12] and 92 % of control under setting [13].

(Values after PubChem BioAssay AID330 (DTP/NCI, 2004).)
